Data published in US5352667A, “Non-peptidic surrogates of the Arg-Gly-Asp sequence and pharmaceutical compositions comprising them” (priority 1991, dated 1994).
Entries after “also recorded” stand apart in the source; their conditions may differ.

Legend:
DTH response to OX = experiment: Inhibition of DTH response to OX in mice (ear swelling); assay type: in vivo, BALB/c mice; parameters: % inhibition of DTH response: concentration or dose not given beside the values; details: I.V.; for Δ Ear swelling: ± SD, positive control 21 ± 2
Experimental: To examine the regulatory role of SF-6,5 on T cell immunity and lymphocyte migration in vivo, a delayed-type hypersensitivity (DTH) reaction experiment was performed in which groups of BALB/c mice (6 mice per group) were sensitized on the shaved abdomen with the skin allergen 4-ethoxymethylene-2-phenyl oxazolone (OX) (10 μl of 3% OX in acetone/olive oil) and challenged again 5 days later by applying OX to their ears. The increment in ear swelling was recorded 24 hours later as a measure of DTH. The individual measuring of ear swelling was blinded to the identity of the groups of mice. GRGDS, RGD surrogate compound SF-6,5 and RGE surrogate compound SF-6,6 were administrated I.V. in 200μl PBS into the tail vein on the indicated days. Control groups of mice were treated identically with PBS.
These findings indicate that modulation of cell-mediated immune reactions in vivo may be achieved by relatively low doses of non-peptidic RGD analogue, most probably by means of interfering with lymphocyte migration.

[1] = test system: B16-melanoma cells adhesion to FN; experiment: Inhibition of B16-melanoma cell adhesion to FN; assay type: cell-based, murine; details: for % inhibition of adhesion of B16-melanoma cells to FN / % Adhesion of B16-melanoma cells to FN: surrogates 0.2 mM; for % inhibition of adhesion of B16-melanoma cells to FN: * P<0.05; for % Adhesion of B16-melanoma cells to FN: none 75 ± 5; for B-16 melanoma cell adhesion to FN, in words: Table 2A
Experimental: (§1) To examine the adhesive properties of tumor cells, 1 μg/50μ/well of FN or 0.3μg/well of VN were added to 96-flat bottom microtiter wells for 12 h. Unbound proteins were then washed away and remaining binding sites were blocked with 0.1% BSA added to the wells for 2 h and washed. Murine B16-melanoma F-1 cells were metabolically labeled with ^35 S-methionine (New England Nuclear) for 2 h, chased for 18 h and extensively washed. The cell suspension was resuspened in RPMI supplemented with 1% BSA containing 1 mM CaCl2 and MgCl2. Tumor cell adhesion to control wells or to wells coated with BSA was always 2-5%. The tested non-peptidic surrogates, 0.2 mM in PBS, were used to pretreat the tumor cells for 15 min before seeding the cells *, P<0.05.
(§2) In a first series of experiments, the potential inhibitory action of the RGD surrogate SF-6,5 on adhesion of B16 melanoma cells to FN or VN was compared to that of the RGE surrogate SF-6,6 and to that of RGD, GRGDSPK and GRGESP peptides.
In a further set of experiments, the inhibitory activity of the RGD surrogates SF-6,5 and NS-11 on the adhesion of B16 murine melanoma cells to FN was compared to that of the GRGDSP peptide.

[2] = test system: tumor cell-induced metastases; experiment: Inhibition of tumor cell-induced metastases in C57BL/6 mice; assay type: in vivo; details: i.v. daily, 25μg of SF-6,5 per mouse, after induction of metastasis
[3] = test system: B16-melanoma cells adhesion to VN; experiment: Inhibition of B16-melanoma cell adhesion to VN; assay type: cell-based, murine; details: for % inhibition of adhesion of B16-melanoma cells to VN / % Adhesion of B16-melanoma cells to VN: surrogates 0.2 mM; for % inhibition of adhesion of B16-melanoma cells to VN: * P<0.05; for % Adhesion of B16-melanoma cells to VN: none 68 ± 5
Experimental: as §1, §2

[4] = test system: CD4^+ T cell adhesion to FN; experiment: Inhibition of activated CD4+ T cell adhesion to FN; assay type: cell-based, human
Experimental: To examine the adhesive properties of the T cells, 1 μg/50 μl/well of either fibronectin (FN) (Sigma), the 120 kD cell attachment fragment of FN (Telios Pharm. Inc. San Diego, CA), or laminin (LN) (Sigma), were added to 96-flat bottom microtiter-wells for 12 h. Unbound proteins were then washed away and remaining binding sites were blocked with 0.1% bovine serum albumin (BSA) added to the wells for 2 h and washed. CD4+T cells were purified from peripheral blood mononuclear leukocytes obtained from healthy human donors. The mononuclear cells were isolated using a Ficoll gradient, washed and incubated in RPMI supplemented with 10% fetal calf serum (FCS) and antibiotics in petri dishes at 37° C. humidified CO2 incubator. After 2 h, the non-adherent cells were isolated and applied on nylon-wool columns (1.5 h). CD4^+ T cells were then negatively selected by exposure of the cells to a cocktail of anti-CD8, CD19, and CD14 monoclonal antibodies (mAb) conjugated to magnetic-beads (Advanced Magnetics, MA). Unbound cells were recovered and their phenotype was examined. Purity of the CD4^+ T cells was always greater than 92% as determined by FACScan.
The purified CD4^+ T cells were radioactively labeled with ^51 [Cr](New England Nuclear) in RPMI +20% FCS for 2 h and washed. The cells were counted and seeded (0.2×10^5 cells) on the precoated microtiter wells in the presence or the absence of the various inhibitors. Coating was made either with FN, the 120 kD cell-attachment fragment of FN or with control adhesive protein laminin (LN). The inhibitors were various surrogates according to the invention, other test molecules or mAb. After 30 min incubation (in […] CO2 -- humidified incubator) the T cells were activated by 10 ng/ml phorbol myristate acetate (PMA) and the percent of T cells attached to the protein substrates was measured. Unbound cells were washed away after 20-30 min, the bound cells were lysed and their radioactivity was measured using radioactive counter. The amount of the radioactivity of the cell lysates represent the matrix-adherent cells and percent binding was calculated in comparison to the total radioactivity added to the wells. Activated T cell adhesion to control wells or to wells coated with BSA was always 2-5%; the level of adhesion of the non-activated T cells was always below 5%. Where indicated, 1/200 diluted mAb anti-CD29 (anti-β1 mAb Serotec, GB), or 1/400 diluted anti-VLA5 (the β1α5 FN-integrin receptor) mAb (Telios Pharm. Inc. San Diego), or 0.2 mM of RGD, GRGDSPK or GRGESP peptides (Sigma) were used. […] The results shown in Tables 1A, 1B and 1C represent data obtained from several experiments that produced essentially similar results.
In a second series of experiments, FN was used in the adhesion assay carried out with the RGD surrogates NS-8, NS-11 and NS-15 in comparison to RGDS peptide.
In a third series of experiments, FN was used in the adhesion assay with the surrogates SF-6,5 and NS-11 and compared to the peptide GRGDSP.

[5] = test system: B16-melanoma cells adhesion to FN; experiment: Inhibition of B16-melanoma cell adhesion to FN; assay type: cell-based, murine
trypsin = experiment: Treatment with trypsin (HPLC monitoring of hydrolysis); assay type: in vitro ADME; details: 0.25% trypsin, 37° C., HPLC at 220 nm, aliquots 5, 30, 60 min
Experimental: Compound SF-6,5 and the GRGDS peptide (50 μg in 100 μl PBS) were incubated at 37° C. and exposed to 0.25% trypsin (Gibco; 50μl in modified Puck's buffer). Aliquots were taken after 5, 30 and 60 min and monitored by HPLC at 220 nm.

[6] = injected on days 1 to 6, * P<0.01

Row | Compound | % inhibition of DTH response (DTH response to OX; injected on days 1 to 6) | Δ Ear swelling (DTH response to OX; [6]) | % inhibition of adhesion of B16-melanoma cells to FN [1] | % Adhesion of B16-melanoma cells to FN [1] | Inhibition of tumor cell-induced metastases [2] | % inhibition of adhesion of B16-melanoma cells to VN [3] | % Adhesion of B16-melanoma cells to VN [3] | B-16 melanoma cell adhesion to FN, in words [1] | other results
1 | N=C(N)NCCCCCC(=O)NCCCCCC(=O)O [SF-6,6] | None | 23 ± 4 × 10^-2 mm | 0% | 75 ± 9% | failed to inhibit metastases | 0% | 70 ± 7% |  | 
2 | N=C(N)NCCCCCC(=O)NCCCCC(=O)O [SF-6,5, 6-aza-7-oxo-12-quanidino-dodecanoic acid] | 95% | 2 ± 1 × 10^-2 mm | 55% | 34 ± 4% | inhibition of tumor cell-induced metastases | 42% | 40 ± 5% | inhibited tumor cell adhesion to both FN and VN | % Adhesion of activated CD4^+ T cell to FN: (% inhibition) ([4]; Conc. 25 μg. ml): 10%; % Adhesion of activated CD4^+ T cell to FN: (% inhibition) ([4]; Conc. 50 μg. ml): 25%; % Adhesion of activated CD4^+ T cell to FN: (% inhibition) ([4]; Conc. 100 μg. ml): 38%; % Adhesion of activated CD4^+ T cell to FN: (% inhibition) ([4]; Conc. 200 μg. ml): 55%; % Adhesion of activated tumor cells to FN: (% inhibition) ([5]; Conc. 25 μg. ml): 10%; % Adhesion of activated tumor cells to FN: (% inhibition) ([5]; Conc. 50 μg. ml): 20%; % Adhesion of activated tumor cells to FN: (% inhibition) ([5]; Conc. 100 μg. ml): 30%; % Adhesion of activated tumor cells to FN: (% inhibition) ([5]; Conc. 200 μg. ml): 45%; Inhibition of DTH response, in words (DTH response to OX): inhibited the DTH response best when the mice were injected for 6 days; also recorded: better inhibitor of the DTH response than the GRGDS peptide; % inhibition of DTH response (DTH response to OX; injected on day 1): 20%; Δ Ear swelling (DTH response to OX; injected on day 1): 16 ± 3 × 10^-2 mm; % inhibition of DTH response (DTH response to OX; injected on days 1, 3): 34%; % inhibition of DTH response (DTH response to OX; injected on days 1, 3, 5): 62%; Δ Ear swelling (DTH response to OX; injected on days 1, 3, 5, * P<0.01): 8 ± 2 × 10^-2 mm; Δ Ear swelling (DTH response to OX; injected on days 1, 3): 13 ± 2 × 10^-2 mm; B-16 melanoma cell adhesion to VN, in words ([3]; Table 2A): inhibited tumor cell adhesion to both FN and VN; Stability to trypsin (trypsin): intact after 60 min; also recorded: completely resistant to trypsin-induced hydrolysis
3 | GRGDSPK [RGD peptide (Sigma)] | 20% | 17 ± 3 × 10^-2 mm | 80% | 15 ± 4% |  | 86% | 10 ± 2% | found to be inhibited by the GRGDSPK peptide | 
